{
  "source": "patent US12245998B2",
  "about": "(NACUITY PHARMACEUTICALS, INC., priority 2019, dated 2025)",
  "key": {"[1]": {"test": "Rheology (elasticity, viscosity) of concentrated HBE airway mucus, cone-and-plate rheometer", "parameters": "species or system human", "conditions": "for elasticity compared with the DTT group / viscosity compared with the DTT group: 200 mM NACA and NAC versus 20 mM DTT, all p<0.05", "experimental": "In the Example 1, the inventors assessed the ability of NACA to reduce the rheological properties of a concentrated (cystic fibrosis-like) mucus, making it more flowable. In this phase, NACA was compared to both a classical clinical reducing agent (N-acetylcysteine; NAC) as well as a potent laboratory reducing agent (Dithiothreitol; DTT). The studies in this phase of the project were performed at a single dose, 200 mM for the mono-thiols NACA and NAC and 20 mM for the di-thiol DTT. Methods. In this study, a single preparation of human bronchial epithelial (HBE) airway mucus at 5.4% solids (i.e., wet-to-dry ratio) was utilized as the test mucus sample. This sample was thawed on ice and split into 4 separate groups. The appropriate amount of test agent (see above) was added to each mucus sample: (1) PBS (vehicle control), (2) NACA, (3) NAC, and (4) DTT. Samples were incubated for 60 minutes at 37ÀöC prior to analysis. Note, the final mucus concentration of each sample (after test agent addition) was ˜4.9% solids. The viscoelastic (i.e., rheological) properties of each mucus preparation was made using a cone-and-plate rheometer (DH3; TA Instruments). For each study, 100 ? of sample was loaded onto the rheometer. Stress controlled sweeps (for viscous and elastic modulus determination) were performed over frequencies from 10-2-102 Hz. To assess yield stress, creep-recovery studies were performed at stresses from 0.05 to 1.5 Pa. Next, the cohesive stress of each sample (i.e., how much force it takes to tear the mucus) was obtained using a peel tester (see Button et. al, PNAS 2018). Studies here were performed at a peel rate of 1 mm/sec."}, "[2]": {"test": "Cohesive strength of HBE airway mucus, peel tester", "parameters": "species or system human", "conditions": "200 mM NACA and NAC, 20 mM DTT", "experimental": "In the Example 1, the inventors assessed the ability of NACA to reduce the rheological properties of a concentrated (cystic fibrosis-like) mucus, making it more flowable. In this phase, NACA was compared to both a classical clinical reducing agent (N-acetylcysteine; NAC) as well as a potent laboratory reducing agent (Dithiothreitol; DTT). The studies in this phase of the project were performed at a single dose, 200 mM for the mono-thiols NACA and NAC and 20 mM for the di-thiol DTT.\nMethods. In this study, a single preparation of human bronchial epithelial (HBE) airway mucus at 5.4% solids (i.e., wet-to-dry ratio) was utilized as the test mucus sample. This sample was thawed on ice and split into 4 separate groups. The appropriate amount of test agent (see above) was added to each mucus sample: (1) PBS (vehicle control), (2) NACA, (3) NAC, and (4) DTT. Samples were incubated for 60 minutes at 37ÀöC prior to analysis. Note, the final mucus concentration of each sample (after test agent addition) was ˜4.9% solids.\nThe viscoelastic (i.e., rheological) properties of each mucus preparation was made using a cone-and-plate rheometer (DH3; TA Instruments). For each study, 100 ? of sample was loaded onto the rheometer. Stress controlled sweeps (for viscous and elastic modulus determination) were performed over frequencies from 10-2-102 Hz. […]"}, "[3]": {"system": "mucins", "conditions": "20 mM; cited from earlier work"}, "[4]": {"conditions": "humans, oral dose of 600 mg; cited from earlier work"}, "[5]": {"conditions": "normal airway surface, pH of 7.0-7.2; cited from earlier work"}, "[6]": {"conditions": "maximum tolerated doses (20%); cited from earlier work"}, "[7]": {"conditions": "oral, treatment periods of approximately 12-24 weeks, patients with chronic bronchitis; cited from earlier work"}, "[8]": {"conditions": "while intubated; cited from earlier work"}, "[9]": {"conditions": "cited from earlier work"}, "[10]": {"system": "WT mice", "conditions": "mouse, in vivo; cited from earlier work"}, "[11]": {"molecular_target": "T1, glutamate cysteine ligase (GCL, EC 6.3.2.2) (Homo sapiens, UniProt P48506)", "T1 sequence (P48506 1-637)": "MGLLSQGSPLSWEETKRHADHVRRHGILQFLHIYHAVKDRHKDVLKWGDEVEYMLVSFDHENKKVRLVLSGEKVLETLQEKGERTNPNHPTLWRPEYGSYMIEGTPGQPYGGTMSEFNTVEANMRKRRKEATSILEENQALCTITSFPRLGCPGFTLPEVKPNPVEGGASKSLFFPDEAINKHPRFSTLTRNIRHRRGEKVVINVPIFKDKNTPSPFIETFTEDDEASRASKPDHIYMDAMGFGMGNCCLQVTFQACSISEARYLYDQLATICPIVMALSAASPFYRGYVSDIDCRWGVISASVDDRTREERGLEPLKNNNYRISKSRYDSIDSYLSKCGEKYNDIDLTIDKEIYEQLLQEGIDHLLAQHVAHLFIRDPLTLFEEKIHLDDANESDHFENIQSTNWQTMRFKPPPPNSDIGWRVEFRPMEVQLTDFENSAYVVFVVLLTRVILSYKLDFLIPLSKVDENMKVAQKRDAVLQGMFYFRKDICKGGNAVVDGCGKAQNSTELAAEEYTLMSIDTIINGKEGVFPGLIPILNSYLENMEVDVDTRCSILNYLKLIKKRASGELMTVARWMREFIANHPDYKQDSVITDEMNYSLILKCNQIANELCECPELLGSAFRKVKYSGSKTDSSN", "T1 sequence (P48507 1-274 partner)": "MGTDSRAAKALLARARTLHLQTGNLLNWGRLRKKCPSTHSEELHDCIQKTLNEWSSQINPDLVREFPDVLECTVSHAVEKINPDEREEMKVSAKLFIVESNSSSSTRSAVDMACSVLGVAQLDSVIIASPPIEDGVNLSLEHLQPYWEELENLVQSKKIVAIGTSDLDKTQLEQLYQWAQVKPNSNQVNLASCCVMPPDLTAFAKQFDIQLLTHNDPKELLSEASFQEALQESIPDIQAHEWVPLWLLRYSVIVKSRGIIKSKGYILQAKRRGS", "conditions": "read-out: Km of GCL for substrate; cited from earlier work"}},
  "data": [
    {"molecule": "CC(=O)N[C@@H](CS)C(N)=O", "values": [
      {"measurement": "elasticity compared with the DTT group", "setting": "[1]", "value": "significantly less than the DTT group"},
      {"measurement": "viscosity compared with the DTT group", "setting": "[1]", "value": "significantly less than the DTT group"},
      {"measurement": "elasticity and viscosity, NACA compared with NAC", "setting": "[1]; 200 mM dose", "value": "no significant difference"},
      {"measurement": "reducing the viscoelasticity of mucus", "setting": "[1]; 200 mM dose", "value": "very effective"},
      {"measurement": "reduction of cohesive strength of mucus", "setting": "[2]; peel rate 1 mm/sec", "value": "very effective"}
    ]},
    {"molecule": "O[C@H](CS)[C@H](O)CS", "note": "(racemic) [DTT, Dithiothreitol]", "values": [
      {"measurement": "cohesive strength, comparison between test agents", "setting": "[2]", "value": "slightly better than NAC and NACA"},
      {"measurement": "reduction of mucins", "setting": "[3]", "value": "fully reduce mucins"}
    ]},
    {"molecule": "CC(=O)N[C@@H](CS)C(=O)O", "note": "[NAC, N-acetyl-L-cysteine]", "values": [
      {"measurement": "elasticity compared with the DTT group", "setting": "[1]", "value": "significantly less than the DTT group"},
      {"measurement": "viscosity compared with the DTT group", "setting": "[1]", "value": "significantly less than the DTT group"},
      {"measurement": "time after administration at which no NAC is detectable", "setting": "[4]", "value": "10 to 12", "unit": "h"},
      {"measurement": "fraction in the inactive protonated form", "setting": "[5]", "value": 99, "unit": "%"},
      {"measurement": "mucus reduction in CF subjects", "setting": "[6]", "value": "did not produce mucus reduction"},
      {"measurement": "risk of adverse effects compared with placebo", "setting": "[7]", "value": "without increasing the risk of adverse effects"},
      {"measurement": "risk of exacerbations compared with placebo", "setting": "[7]", "value": "reduces the risk of exacerbations"},
      {"measurement": "symptoms compared with placebo", "setting": "[7]", "value": "improves symptoms"},
      {"measurement": "efficacy for atelectasis/mucus plugging", "setting": "[8]", "value": "ineffective"},
      {"measurement": "removal of mucus plugs", "setting": "[9]; high concentrations, delivered topically via bronchoscopy, subjects with CF or tracheostomies", "value": "could remove mucus plugs"},
      {"measurement": "lung function following inhalation treatment", "setting": "[9]; inhalation, high NAC concentrations (20%, 1,200 mOsm) aerosolized", "value": "modest improvements in lung function"},
      {"measurement": "airway toxicity in WT mice", "setting": "[10]", "value": "induced epithelial cell damage and acute neutrophilic responses"}
    ]},
    {"molecule": "N[C@@H](CS)C(=O)O", "note": "[cysteine, L-cysteine]", "values": [
      {"measurement": "Km", "setting": "[11]", "value": "100 to 300", "unit": "µM"}
    ]},
    {"molecule": "Dornasealfa: mucoactive agent reviewed for adults with acute lung conditions (protein, UniProt P24855 23-282, looked up) Deoxyribonuclease-1: LKIAAFNIQTFGETKMSNATLVSYIVQILSRYDIALVQEVRDSHLTAVGKLLDNLNQDAPDTYHYVVSEPLGRNSYKERYLFVYRPDQVSAVDSYYYDDGCEPCGNDTFNREPAIVRFFSRFTEVREFAIVPLHAAPGDAVAEIDALYDVYLDVQEKWGLEDVMLMGDFNAGCSYVRPSQWSSIRLWTSPTFQWLIPDSADTTATPTHCAYDRIVVAGMLLRGAVVPDSALPFNFQAAYGLSDQLAQAISDHYPVEVMLK", "values": [
      {"measurement": "efficacy for atelectasis/mucus plugging", "setting": "[8]", "value": "ineffective"}
    ]}
  ]
}
